In the NIST ThermoML archive (doi:10.1021/je3003578):
± gives the expanded uncertainty stated by the source.

Test: xn = mol fraction of the nth substance listed
Conditions: 101 kPa, Liquid

CCOCCCN [3-ethoxy-1-propanamine] + O
mass density [kg/m3]
Conditions | 283.15 K | 288.15 K | 293.15 K
x1 = 0.000108 | 999.685 ± 0.3 | 999.073 ± 0.31 | 998.176 ± 0.31
x1 = 0.000319 | 999.612 ± 0.3 | 998.997 ± 0.31 | 998.098 ± 0.31
x1 = 0.000625 | 999.489 ± 0.3 | – | 997.974 ± 0.31
x1 = 0.000707 | 999.462 ± 0.3 | – | –
x1 = 0.000942 | 999.378 ± 0.3 | 998.755 ± 0.31 | 997.845 ± 0.31
x1 = 0.001046 | 999.335 ± 0.3 | – | –
x1 = 0.001284 | 999.244 ± 0.31 | 998.623 ± 0.31 | 997.706 ± 0.31
x1 = 0.001947 | 999.006 ± 0.31 | 998.367 ± 0.31 | 997.459 ± 0.31
x1 = 0.002912 | 998.665 ± 0.31 | 998.003 ± 0.31 | 997.058 ± 0.31
x1 = 0.00392 | 998.32 ± 0.31 | 997.639 ± 0.31 | 996.673 ± 0.31
x1 = 0.005098 | 997.943 ± 0.31 | 997.245 ± 0.31 | 996.25 ± 0.31
x1 = 0.007456 | 997.213 ± 0.31 | 996.459 ± 0.31 | –
x1 = 0.00981 | 996.579 ± 0.31 | 995.782 ± 0.31 | 994.681 ± 0.32
x1 = 0.0148 | 995.454 ± 0.31 | 994.495 ± 0.32 | 993.269 ± 0.32
x1 = 0.01956 | 994.585 ± 0.31 | 993.456 ± 0.32 | 992.092 ± 0.32
x1 = 0.02832 | 993.306 ± 0.32 | 991.899 ± 0.32 | 990.264 ± 0.32
x1 = 0.03914 | 992.137 ± 0.32 | 990.361 ± 0.32 | 988.357 ± 0.33
x1 = 0.05082 | 991.126 ± 0.32 | 988.889 ± 0.33 | 986.504 ± 0.33
x1 = 0.06674 | 989.564 ± 0.33 | 986.858 ± 0.33 | 983.968 ± 0.34
x1 = 0.09536 | 985.793 ± 0.34 | 982.292 ± 0.34 | 978.874 ± 0.35
x1 = 0.1209 | 981.126 ± 0.35 | 977.267 ± 0.36 | 973.326 ± 0.37
x1 = 0.1452 | 976.001 ± 0.36 | 971.617 ± 0.37 | 967.737 ± 0.38
x1 = 0.1844 | 967.807 ± 0.38 | 962.845 ± 0.39 | 958.517 ± 0.41
x1 = 0.2121 | 960.275 ± 0.4 | 955.87 ± 0.41 | 951.456 ± 0.42
x1 = 0.2438 | 954.343 ± 0.42 | 948.987 ± 0.43 | –
x1 = 0.2923 | 944.589 ± 0.45 | 939.953 ± 0.46 | –
x1 = 0.361 | 932.627 ± 0.48 | 926.801 ± 0.5 | –
x1 = 0.4369 | 921.019 ± 0.53 | 916.153 ± 0.54 | –
x1 = 0.4937 | 911.932 ± 0.56 | 907.295 ± 0.58 | –
x1 = 0.5513 | 904.655 ± 0.6 | 900.039 ± 0.61 | –
x1 = 0.6214 | 896.914 ± 0.63 | 892.186 ± 0.65 | –
x1 = 0.6775 | 891.266 ± 0.66 | 886.402 ± 0.68 | –
x1 = 0.6943 | 889.59 ± 0.67 | 884.998 ± 0.68 | –
x1 = 0.7458 | 884.839 ± 0.69 | 880.089 ± 0.71 | –
x1 = 0.7733 | 882.976 ± 0.71 | – | –
x1 = 0.7947 | 880.664 ± 0.72 | 875.868 ± 0.73 | –
x1 = 0.8276 | 878.228 ± 0.73 | 873.43 ± 0.75 | –
x1 = 0.8488 | 876.201 ± 0.74 | 871.511 ± 0.76 | –
x1 = 0.8744 | 874.608 ± 0.76 | – | –
x1 = 0.8993 | 872.317 ± 0.77 | 867.858 ± 0.78 | –
x1 = 0.9189 | 871.084 ± 0.78 | 866.306 ± 0.79 | –
x1 = 0.9349 | – | 864.955 ± 0.8 | –
x1 = 0.9411 | 869.403 ± 0.79 | – | –
x1 = 0.9436 | – | 864.338 ± 0.8 | –
x1 = 0.9486 | 868.869 ± 0.79 | – | –
x1 = 0.9601 | 868.041 ± 0.8 | 863.267 ± 0.81 | –
x1 = 0.9755 | – | 862.192 ± 0.82 | –
x1 = 0.985 | 866.322 ± 0.81 | 861.525 ± 0.82 | –
x1 = 1 | 865.36 ± 0.82 | 860.63 ± 0.83 | –
